# Measurements reported in ChEMBL document CHEMBL1201862, “PubChem BioAssay data set” (2004).
# Values joined by “and” are separate entries in the source; they are usually repeats but may differ in a detail not shown here. Identical values can stand only once.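 Interpolation was linear, between the two tested concentrations surrounding the appropriate level; five concentrations were tested over 48 hours in 96-well plates. The concentration for 50% growth inhibition is given as GI50.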 Active and inactive are the calls of the source. Rule as the data show it: active = GI50 up to about 1.1 µM and inactive = higher.
# Tests used:
# Assay in all cases: NCI tumour cell line growth inhibition, 48 h
# CCRF-CEM = test system: CCRF-CEM
# EKVX = test system: EKVX
# HCT-116 = test system: HCT-116
# HCT-15 = test system: HCT-15
# HOP-62 = test system: HOP-62
# HOP-92 = test system: HOP-92
# KM12 = test system: KM12
# NCI-H23 = test system: NCI-H23
# NCI-H460 = test system: NCI-H460
# NCI/ADR-RES = test system: NCI/ADR-RES
# OVCAR-5 = test system: OVCAR-5
# OVCAR-8 = test system: OVCAR-8
# SK-MEL-2 = test system: SK-MEL-2
# SK-MEL-5 = test system: SK-MEL-5
# SN12C = test system: SN12C
# SNB-19 = test system: SNB-19
# SR = test system: SR
# OVCAR-3 = test system: OVCAR-3
# RXF 393 = test system: RXF 393
# UACC-257 = test system: UACC-257
Compound,GI50 (CCRF-CEM),GI50 (EKVX),GI50 (HCT-116),GI50 (HCT-15),GI50 (HOP-62),GI50 (HOP-92),GI50 (KM12),GI50 (NCI-H23),GI50 (NCI-H460),GI50 (NCI/ADR-RES),GI50 (OVCAR-5),GI50 (OVCAR-8),GI50 (SK-MEL-2),GI50 (SK-MEL-5),GI50 (SN12C),GI50 (SNB-19),GI50 (SR),GI50 (OVCAR-3),GI50 (RXF 393),GI50 (UACC-257)
Nc1nc(N)c2c(Cl)c(CNc3ccc(C(=O)NC(CC(=O)O)C(=O)O)cc3)ccc2n1 (stereo not drawn),< 0.01 µM (active),< 0.01 µM (active),10.7 µM (inactive),< 0.01 µM,< 0.027 µM (active),0.043 µM (active),< 0.01 µM (active),< 0.01 µM (active),< 0.01 µM (active),< 0.01 µM (active),< 0.01 µM (active),< 0.01 µM (active),> 100 µM (inactive),< 0.01 µM (active),< 0.01 µM (active),< 0.01 µM (active),< 0.01 µM (active),–,–,–
O=C1c2ccccc2C(=O)N1c1ccc(Cc2ccc(N3C(=O)c4ccccc4C3=O)cc2)cc1,–,> 100 µM (inactive),> 100 µM (inactive),> 100 µM,49.9 µM (inactive),> 100 µM (inactive),> 100 µM (inactive),> 100 µM (inactive),> 100 µM (inactive),> 100 µM (inactive),> 100 µM (inactive),> 100 µM (inactive),> 100 µM (inactive),> 100 µM (inactive),> 100 µM (inactive),> 100 µM (inactive),–,> 21.9 µM (inactive),> 100 µM (inactive),> 100 µM (inactive)
CC(=O)c1c(-c2cccc3ccccc23)c(C#N)c(=S)n(C2OC(CO)C(O)C(O)C2O)c1C (stereo not drawn),56 µM (inactive) and 51.4 µM (inactive),11.1 µM (inactive),> 100 µM (inactive),> 100 µM,54.8 µM (inactive),56.8 µM (inactive),79.1 µM (inactive),> 100 µM (inactive) and 52.2 µM (inactive),> 100 µM (inactive),62.2 µM (inactive),> 100 µM (inactive),> 100 µM (inactive),> 100 µM (inactive),> 100 µM (inactive),81.3 µM (inactive),59.7 µM (inactive),–,> 100 µM (inactive),83.6 µM (inactive),69 µM (inactive)
CCOc1cc(NC(C)=O)ccc1C(=O)NN1C(=O)/C(=C/c2cc(OC)c(OC)c(OC)c2)N=C1c1ccccc1,> 100 µM (inactive),> 100 µM (inactive),> 100 µM (inactive),> 100 µM,–,23 µM (inactive),37.2 µM (inactive),> 100 µM (inactive),91.6 µM (inactive),> 100 µM (inactive),> 100 µM (inactive),63.5 µM (inactive),–,65.8 µM (inactive),> 100 µM (inactive),> 100 µM (inactive),> 100 µM (inactive),> 100 µM (inactive),–,> 100 µM (inactive)
COc1cccc(/C=N/NC(=O)CN(C)C)c1O,> 100 µM (inactive),> 100 µM (inactive),> 100 µM (inactive),> 100 µM,> 100 µM (inactive),> 100 µM (inactive),> 100 µM (inactive),> 100 µM (inactive),> 100 µM (inactive),> 100 µM (inactive),> 100 µM (inactive),> 100 µM (inactive),–,> 100 µM (inactive),> 100 µM (inactive),> 100 µM (inactive),–,> 100 µM (inactive),> 100 µM (inactive),> 100 µM (inactive)
CN(C)CCNc1c2ccccc2c2c3c(cccc13)C(=O)N(CCN(C)C)C2=O,0.111 µM (active),0.332 µM (active),0.0254 µM (active),0.0615 µM,1.67 µM (inactive),0.138 µM (active),0.232 µM (active),0.0904 µM (active),0.0448 µM (active),0.0627 µM (active),0.224 µM (active),0.129 µM (active),0.188 µM (active),0.697 µM (active),0.0883 µM (active),0.28 µM (active),–,0.112 µM (active),0.0232 µM (active),0.49 µM (active)
COc1cc2c3c(c4cc(OC)c(OC)cc4c2cc1OC)C(=O)C1CCC(=O)N1C3 (stereo not drawn),6.64 µM (inactive),–,–,31.6 µM,13.6 µM (inactive),12 µM (inactive),70.1 µM (inactive),55 µM (inactive),13.8 µM (inactive),94.4 µM (inactive),–,27.2 µM (inactive),41.9 µM (inactive),34 µM (inactive),–,–,–,20.6 µM (inactive),14.8 µM (inactive),41.9 µM (inactive)
CC1NC(=O)CC(c2ccccc2)N(N=O)C1c1ccccc1 (stereo not drawn),23.8 µM (inactive),> 70.6 µM (inactive),37.1 µM (inactive),39.5 µM,28.8 µM (inactive),16.9 µM (inactive),56.1 µM (inactive),36.2 µM (inactive),25.8 µM (inactive),25.2 µM (inactive),> 100 µM (inactive),34 µM (inactive),39.5 µM (inactive),28.6 µM (inactive),49.5 µM (inactive),40 µM (inactive),–,33.2 µM (inactive),22.4 µM (inactive),55.6 µM (inactive)
N[C@@H]1c2c(Br)sc(Br)c2[C@H](O)[C@@H]1O,> 100 µM (inactive),> 100 µM (inactive),> 100 µM (inactive),> 100 µM,–,> 100 µM (inactive),> 100 µM (inactive),> 100 µM (inactive),> 100 µM (inactive),> 100 µM (inactive),> 100 µM (inactive),> 100 µM (inactive),> 100 µM (inactive),> 100 µM (inactive),> 100 µM (inactive),> 100 µM (inactive),–,> 100 µM (inactive),> 100 µM (inactive),> 100 µM (inactive)
N#Cc1ccccc1NC(=O)C(=O)c1c(O)c2ccccc2oc1=O,> 100 µM (inactive),> 100 µM (inactive),> 100 µM (inactive),> 100 µM,> 100 µM (inactive),> 100 µM (inactive),> 100 µM (inactive),> 100 µM (inactive),> 100 µM (inactive),> 100 µM (inactive),> 100 µM (inactive),> 100 µM (inactive),> 100 µM (inactive),> 100 µM (inactive),> 100 µM (inactive),> 100 µM (inactive),–,> 100 µM (inactive),> 100 µM (inactive),> 100 µM (inactive)
ClCCCN(CCCCl)c1ccc(/C=N/c2cccc(Cl)c2)cc1,16.4 µM (inactive),0.637 µM (active),32.5 µM (inactive),18.1 µM,18.7 µM (inactive),29.2 µM (inactive),20.5 µM (inactive),15.5 µM (inactive),9.55 µM (inactive),11.2 µM (inactive),22.1 µM (inactive),6.95 µM (inactive),26.7 µM (inactive),–,10.4 µM (inactive),30.1 µM (inactive),–,19.1 µM (inactive),14.2 µM (inactive),29.4 µM (inactive)
CC1OC2OC3C(OCC(O)C3O)OC(=O)[C@]34CCC(C)(C)CC3C3=CCC5[C@@]6(C)C[C@H](O)[C@H](OC7OC(CO)C(O)C(O)C7OC7OCC(OC(=O)CC(C)(O)CC(=O)OC1C(O)C2O)C(O)C7O)[C@@](C)(CO)C6CC[C@@]5(C)[C@]3(C)CC4 (stereo partly drawn),5.68 µM (inactive),–,5.75 µM (inactive),7.98 µM,2.75 µM (inactive),2.32 µM (inactive),2.82 µM (inactive),3.1 µM (inactive),11.6 µM (inactive),12.7 µM (inactive),2.66 µM (inactive),4.5 µM (inactive),7.91 µM (inactive),4.18 µM (inactive),9.53 µM (inactive),6.22 µM (inactive),6.35 µM (inactive),9.64 µM (inactive),–,2.33 µM (inactive)
CN(C)CCNC(=O)c1cccc2c(NCC(=O)O)c3ccccc3nc12,36 µM (inactive),10.6 µM (inactive),4.67 µM (inactive),10.1 µM,11.6 µM (inactive),8.04 µM (inactive),11.9 µM (inactive),15.2 µM (inactive),–,11.9 µM (inactive),13.5 µM (inactive),4.61 µM (inactive),16.7 µM (inactive),10.6 µM (inactive),9.98 µM (inactive),6.49 µM (inactive),1.36 µM (inactive),19.9 µM (inactive),–,–
O=C(NCCCCCCNCc1cccc2ccccc12)Nc1cccc2ccccc12,> 100 µM (inactive),> 100 µM (inactive),> 100 µM (inactive),> 100 µM,> 100 µM (inactive),> 100 µM (inactive),> 100 µM (inactive),> 100 µM (inactive),> 100 µM (inactive),> 100 µM (inactive),63.1 µM (inactive),> 100 µM (inactive),> 100 µM (inactive),> 100 µM (inactive),> 100 µM (inactive),> 100 µM (inactive),–,> 100 µM (inactive),> 100 µM (inactive),> 100 µM (inactive)
Cc1ccc2c(c1)[n+]([O-])c(N)n[n+]2[O-],91.2 µM (inactive),> 100 µM (inactive),> 100 µM (inactive),64.9 µM,> 100 µM (inactive),–,> 100 µM (inactive),63.2 µM (inactive),47.8 µM (inactive),> 100 µM (inactive),> 100 µM (inactive),> 100 µM (inactive),> 100 µM (inactive),37.6 µM (inactive),> 100 µM (inactive),> 100 µM (inactive),> 100 µM (inactive),> 100 µM (inactive),–,> 100 µM (inactive)
